Consider 16 molecules from PubChem BioAssay (NCI).

Molecules are shown by their SMILES.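 Cells were grown in 96-well plates and exposed to each compound for 48 hours at five concentrations; endpoints were interpolated linearly between bracketing concentrations, or set to the highest concentration if not reached. Definition used: TGI = concentration required for complete inhibition of growth.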

One test has as its system A498 renal. As to the kind of experiment: inhibition of tumour cell growth, NCI panel, 48 h.
Regarding `CCOC(=O)P(=O)(O)c1ccc(N(C)Cc2ccccc2)cc1`, the TGI is above 100 µM.
`C=C(C)C1=CCC[C@]2(C1)N=C(OC)[C@@H](C(C)C)N=C2OC` came in with a TGI above 100 µM.
Still for that read-out and setting: the value for `O=[N+]([O-])/C(C(Cl)=C(Cl)Cl)=C(\N1CCOCC1)n1nnc2ccccc21` was 37.8 µM; that for `CC1=NN(C(=O)c2ccccc2O)C(=O)/C1=C/c1ccco1` was above 100 µM; that for `Cn1c(=O)c(Br)c(C=O)n(CCO[N+](=O)[O-])c1=O` was 33.4 µM.
On to `NN(CC(=O)O)CC(=O)O`, for which the TGI was above 100 µM.
On the same count and under the same terms, in the case of `C=CCN1C(=O)C=C(c2ccccc2)n2ncc3cccc1c32` it was above 100 µM.

The next test concerns A549 NSCLC. As to the kind of experiment: inhibition of tumour cell growth, NCI panel, 48 h.
`O=C(CN1CCCCC1)Nc1ccc2sc3ccccc3c(=O)c2n1` came in with a TGI of 31.7 µM.
With `CCOC(=O)/C(C#N)=C\c1ccc(N(CCC(=O)O)CCC(=O)O)c(I)c1`, the TGI was above 10 µM.
The molecule `CCOC(=O)P(=O)(O)c1ccc(N(C)Cc2ccccc2)cc1` gave a TGI above 100 µM.
Same read-out and setting: in the case of `C=C(C)C1=CCC[C@]2(C1)N=C(OC)[C@@H](C(C)C)N=C2OC` it was above 100 µM; in that of `CC(=O)C(=C(c1ccccc1)c1ccccc1)c1ccccc1`, above 100 µM.
Still for that read-out and setting: the value for `O=C1NC2ON=C(c3ccccc3)C2C2ON=C(c3ccccc3)N12` (stereo unspecified) was above 100 µM; that for `O=[N+]([O-])/C(C(Cl)=C(Cl)Cl)=C(\N1CCOCC1)n1nnc2ccccc21` was 42.7 µM; that for `C=CCNC(=O)NC(=O)CSC1=NNC2(C(=O)N1)c1ccccc1-c1ccccc12` was above 10 µM.
The molecule `O=C1/C(=C/c2cccc(F)c2)CCCc2ccccc21` showed a TGI of 38.2 µM.
`CC1=NN(C(=O)c2ccccc2O)C(=O)/C1=C/c1ccco1` gave a TGI above 100 µM.
`COc1ccc2[nH]cc(CCNC(=O)[C@H](Cc3ccccc3)NC(=O)[C@@H](NCC(F)(F)F)C(C)C)c2c1`: the TGI was 70 µM.
Still for that read-out and setting: the value for `CCc1n[nH]c(=O)n1/N=C/c1c(O)ccc2ccccc12` was above 100 µM; that for `C(=C\c1cccs1)/c1cccc(/C=C/c2cccs2)n1` was above 100 µM.
On the same count and under the same terms, in the case of `Cn1c(=O)c(Br)c(C=O)n(CCO[N+](=O)[O-])c1=O` it was 33 µM; in that of `NN(CC(=O)O)CC(=O)O`, above 100 µM.
Same read-out and setting: the value for `C=CCN1C(=O)C=C(c2ccccc2)n2ncc3cccc1c32` was above 100 µM.

The test system of the next test is COLO 205 colon. As to the kind of experiment: inhibition of tumour cell growth, NCI panel, 48 h.
With `O=C(CN1CCCCC1)Nc1ccc2sc3ccccc3c(=O)c2n1`, the TGI came out at 28.3 µM.
The molecule `CCOC(=O)/C(C#N)=C\c1ccc(N(CCC(=O)O)CCC(=O)O)c(I)c1` came in with a TGI above 10 µM.
Still for that read-out and setting: the value for `CCOC(=O)P(=O)(O)c1ccc(N(C)Cc2ccccc2)cc1` was above 100 µM; that for `C=C(C)C1=CCC[C@]2(C1)N=C(OC)[C@@H](C(C)C)N=C2OC` was above 100 µM; that for `CC(=O)C(=C(c1ccccc1)c1ccccc1)c1ccccc1` was above 100 µM.
As for `O=C1NC2ON=C(c3ccccc3)C2C2ON=C(c3ccccc3)N12` (stereo unspecified), the TGI was above 100 µM.
On to `O=[N+]([O-])/C(C(Cl)=C(Cl)Cl)=C(\N1CCOCC1)n1nnc2ccccc21`, for which the TGI was 34.7 µM.
Still for that read-out and setting: the value for `C=CCNC(=O)NC(=O)CSC1=NNC2(C(=O)N1)c1ccccc1-c1ccccc12` was above 10 µM; that for `O=C1/C(=C/c2cccc(F)c2)CCCc2ccccc21` was 36.4 µM.
Still for that read-out and setting: the value for `CC1=NN(C(=O)c2ccccc2O)C(=O)/C1=C/c1ccco1` was above 63.8 µM; that for `COc1ccc2[nH]cc(CCNC(=O)[C@H](Cc3ccccc3)NC(=O)[C@@H](NCC(F)(F)F)C(C)C)c2c1` was 32.3 µM.
On the same count and under the same terms, in the case of `CCc1n[nH]c(=O)n1/N=C/c1c(O)ccc2ccccc12` it was above 100 µM; in that of `C(=C\c1cccs1)/c1cccc(/C=C/c2cccs2)n1`, above 100 µM; in that of `Cn1c(=O)c(Br)c(C=O)n(CCO[N+](=O)[O-])c1=O`, 26.9 µM.
`NN(CC(=O)O)CC(=O)O` displayed a TGI above 100 µM.
In the case of `C=CCN1C(=O)C=C(c2ccccc2)n2ncc3cccc1c32`, the TGI was above 100 µM.

The subject of a further test is DU-145 prostate. As to the kind of experiment: inhibition of tumour cell growth, NCI panel, 48 h.
In the case of `O=C(CN1CCCCC1)Nc1ccc2sc3ccccc3c(=O)c2n1`, the TGI is above 100 µM.
`CCOC(=O)/C(C#N)=C\c1ccc(N(CCC(=O)O)CCC(=O)O)c(I)c1` showed a TGI above 10 µM.
Same read-out and setting: the value for `CCOC(=O)P(=O)(O)c1ccc(N(C)Cc2ccccc2)cc1` was above 100 µM; that for `C=C(C)C1=CCC[C@]2(C1)N=C(OC)[C@@H](C(C)C)N=C2OC` was above 100 µM.
For `CC(=O)C(=C(c1ccccc1)c1ccccc1)c1ccccc1`, the TGI is above 100 µM.
The same measure, in the same setting: the value for `O=C1NC2ON=C(c3ccccc3)C2C2ON=C(c3ccccc3)N12` (stereo unspecified) was above 100 µM.
`O=[N+]([O-])/C(C(Cl)=C(Cl)Cl)=C(\N1CCOCC1)n1nnc2ccccc21` showed a TGI of 37.5 µM.
The same measure, in the same setting: in the case of `C=CCNC(=O)NC(=O)CSC1=NNC2(C(=O)N1)c1ccccc1-c1ccccc12` it was above 10 µM; in that of `O=C1/C(=C/c2cccc(F)c2)CCCc2ccccc21`, 30.6 µM.
Still for that read-out and setting: in the case of `CC1=NN(C(=O)c2ccccc2O)C(=O)/C1=C/c1ccco1` it was above 100 µM; in that of `COc1ccc2[nH]cc(CCNC(=O)[C@H](Cc3ccccc3)NC(=O)[C@@H](NCC(F)(F)F)C(C)C)c2c1`, 37.7 µM.
On to `CCc1n[nH]c(=O)n1/N=C/c1c(O)ccc2ccccc12`, for which the TGI was above 100 µM.
Consider `C(=C\c1cccs1)/c1cccc(/C=C/c2cccs2)n1`, for which the TGI was above 100 µM.
For `Cn1c(=O)c(Br)c(C=O)n(CCO[N+](=O)[O-])c1=O`, the TGI is above 100 µM.
`NN(CC(=O)O)CC(=O)O` showed a TGI above 100 µM.
On the same count and under the same terms, the value for `C=CCN1C(=O)C=C(c2ccccc2)n2ncc3cccc1c32` was above 100 µM.

For a further test, the system named is EKVX NSCLC. Briefly: inhibition of tumour cell growth, NCI panel, 48 h.
The molecule `O=C(CN1CCCCC1)Nc1ccc2sc3ccccc3c(=O)c2n1` returned a TGI of 89.3 µM.
Still for that read-out and setting: the value for `CCOC(=O)/C(C#N)=C\c1ccc(N(CCC(=O)O)CCC(=O)O)c(I)c1` was above 10 µM.
On the same count and under the same terms, the value for `CCOC(=O)P(=O)(O)c1ccc(N(C)Cc2ccccc2)cc1` was above 100 µM; that for `C=C(C)C1=CCC[C@]2(C1)N=C(OC)[C@@H](C(C)C)N=C2OC` was above 100 µM.
Take `CC(=O)C(=C(c1ccccc1)c1ccccc1)c1ccccc1`: the TGI stood at 80.2 µM.
Regarding `O=C1NC2ON=C(c3ccccc3)C2C2ON=C(c3ccccc3)N12` (stereo unspecified), the TGI was above 100 µM.
On the same count and under the same terms, in the case of `O=[N+]([O-])/C(C(Cl)=C(Cl)Cl)=C(\N1CCOCC1)n1nnc2ccccc21` it was 35.2 µM; in that of `C=CCNC(=O)NC(=O)CSC1=NNC2(C(=O)N1)c1ccccc1-c1ccccc12`, above 10 µM.
The same measure, in the same setting: in the case of `O=C1/C(=C/c2cccc(F)c2)CCCc2ccccc21` it was 28.6 µM; in that of `CC1=NN(C(=O)c2ccccc2O)C(=O)/C1=C/c1ccco1`, 44.2 µM.
As to `COc1ccc2[nH]cc(CCNC(=O)[C@H](Cc3ccccc3)NC(=O)[C@@H](NCC(F)(F)F)C(C)C)c2c1`, the TGI came to 44 µM.
`CCc1n[nH]c(=O)n1/N=C/c1c(O)ccc2ccccc12` showed a TGI above 100 µM.
The same measure, in the same setting: the value for `C(=C\c1cccs1)/c1cccc(/C=C/c2cccs2)n1` was above 100 µM; that for `Cn1c(=O)c(Br)c(C=O)n(CCO[N+](=O)[O-])c1=O` was 7.07 µM.
Regarding `NN(CC(=O)O)CC(=O)O`, the TGI is above 100 µM.
Regarding `C=CCN1C(=O)C=C(c2ccccc2)n2ncc3cccc1c32`, the TGI was above 100 µM.
